From ChEMBL document CHEMBL1127236, “Synthesis and biological activities of fluorine-substituted ()-indolactam-V, the core structure of tumor promoter teleocidins” (1994)

Key:
HeLa [1] = assay: Compound was tested for stimulation of the incorporation of 32Pi into phospholipids of HeLa cells at 10E-5 M concentration; format: functional, Homo sapiens
HeLa [2] = assay: Compound was tested for stimulation of the incorporation of 32Pi into phospholipids of HeLa cells at 10E-6 M concentration; format: functional, Homo sapiens
HeLa [3] = assay: Compound was tested for stimulation of the incorporation of 32Pi into phospholipids of HeLa cells at 10E-8 M concentration; format: functional, Homo sapiens
Mus musculus = organism: Mus musculus; assay: In vitro binding affinity towards TPA receptor in mouse epidermal particulate fraction using [3H]TPA as radioligand
HeLa [4] = assay: Compound was tested for stimulation of the incorporation of 32Pi into phospholipids of HeLa cells at 10E-7 M concentration; format: functional, Homo sapiens
HeLa [5] = assay: Compound was tested for stimulation of the incorporation of 32Pi into phospholipids of HeLa cells at 10E-4 M concentration; format: functional, Homo sapiens

Structure (SMILES) | Relativity (HeLa [1]) [c.p.m. mg-1] | Relativity (HeLa [2]) [c.p.m. mg-1] | Relativity (HeLa [3]) [c.p.m. mg-1] | pID50 (Mus musculus) | Relativity (HeLa [4]) [c.p.m. mg-1] | Relativity (HeLa [5]) [c.p.m. mg-1]
CC(C)[C@H]1C(=O)N[C@H](CO)Cc2c[nH]c3cccc(c23)N1C [INDOLACTUM] | 7.82 | 4.69 | 1.04 | 5.97 | 1.36 | 
CC(C)[C@H]1C(=O)N[C@H](CO)Cc2c[nH]c3ccc(F)c(c23)N1C | 3.57 | 1.28 |  | 4.41 | 1.29 | 5.32
CC(C)[C@H]1C(=O)N[C@H](CO)Cc2c[nH]c3cc(F)cc(c23)N1C | 6.87 | 7.43 | 1.18 | 5.85 | 1.78 | 
